# Experimental data taken from ChEMBL document CHEMBL1123364, “Selective thromboxane synthetase inhibitors. 4. 2-(1H-imidazol-1-ylmethyl) carboxylic acids of benzo[b]furan, benzo[b]thiophene, indole, and naphthalene” (J Med Chem, 1986).
# Tests used:
# Thromboxane-A synthase = molecular target: T1, Thromboxane-A synthase (Homo sapiens, UniProt P24557); assay: Inhibition of TXA2 synthetase from human platelets
# T1 sequence (P24557 whole entry): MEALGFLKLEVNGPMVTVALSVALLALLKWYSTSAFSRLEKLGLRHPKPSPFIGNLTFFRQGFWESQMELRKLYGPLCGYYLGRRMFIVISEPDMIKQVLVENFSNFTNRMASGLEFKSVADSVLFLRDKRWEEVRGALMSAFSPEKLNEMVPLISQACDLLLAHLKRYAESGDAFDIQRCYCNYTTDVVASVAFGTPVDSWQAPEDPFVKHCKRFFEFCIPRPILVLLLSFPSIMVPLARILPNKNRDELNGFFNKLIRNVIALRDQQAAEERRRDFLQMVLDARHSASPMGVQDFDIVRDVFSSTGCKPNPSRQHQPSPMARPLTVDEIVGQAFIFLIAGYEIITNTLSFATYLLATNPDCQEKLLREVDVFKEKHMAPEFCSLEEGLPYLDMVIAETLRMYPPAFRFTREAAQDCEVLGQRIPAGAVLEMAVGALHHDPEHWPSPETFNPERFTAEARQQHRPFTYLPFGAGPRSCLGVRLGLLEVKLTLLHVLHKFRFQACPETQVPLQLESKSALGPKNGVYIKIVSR
# Cyclooxygenase = molecular target: T2, Cyclooxygenase (Rattus norvegicus, UniProt P35355+Q63921); assay: Inhibition of cyclooxygenase from RBL-1 cells.; type: cell-based
# T2 sequence (P35355 whole entry): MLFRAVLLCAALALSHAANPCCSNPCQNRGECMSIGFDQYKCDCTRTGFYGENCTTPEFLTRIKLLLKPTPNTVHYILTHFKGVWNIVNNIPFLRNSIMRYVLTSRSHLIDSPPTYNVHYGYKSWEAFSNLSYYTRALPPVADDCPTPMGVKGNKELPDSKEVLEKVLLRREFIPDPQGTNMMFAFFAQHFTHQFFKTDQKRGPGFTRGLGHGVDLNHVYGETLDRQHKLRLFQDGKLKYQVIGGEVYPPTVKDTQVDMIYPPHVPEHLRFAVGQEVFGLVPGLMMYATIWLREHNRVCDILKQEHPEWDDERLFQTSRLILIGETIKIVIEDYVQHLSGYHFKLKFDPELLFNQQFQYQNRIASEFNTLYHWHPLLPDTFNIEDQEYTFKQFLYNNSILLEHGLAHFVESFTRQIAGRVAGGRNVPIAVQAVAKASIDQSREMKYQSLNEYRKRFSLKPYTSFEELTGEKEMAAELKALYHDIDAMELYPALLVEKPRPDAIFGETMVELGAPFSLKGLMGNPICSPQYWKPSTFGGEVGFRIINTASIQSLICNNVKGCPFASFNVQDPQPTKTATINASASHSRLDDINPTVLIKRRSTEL
# T2 sequence (Q63921 whole entry): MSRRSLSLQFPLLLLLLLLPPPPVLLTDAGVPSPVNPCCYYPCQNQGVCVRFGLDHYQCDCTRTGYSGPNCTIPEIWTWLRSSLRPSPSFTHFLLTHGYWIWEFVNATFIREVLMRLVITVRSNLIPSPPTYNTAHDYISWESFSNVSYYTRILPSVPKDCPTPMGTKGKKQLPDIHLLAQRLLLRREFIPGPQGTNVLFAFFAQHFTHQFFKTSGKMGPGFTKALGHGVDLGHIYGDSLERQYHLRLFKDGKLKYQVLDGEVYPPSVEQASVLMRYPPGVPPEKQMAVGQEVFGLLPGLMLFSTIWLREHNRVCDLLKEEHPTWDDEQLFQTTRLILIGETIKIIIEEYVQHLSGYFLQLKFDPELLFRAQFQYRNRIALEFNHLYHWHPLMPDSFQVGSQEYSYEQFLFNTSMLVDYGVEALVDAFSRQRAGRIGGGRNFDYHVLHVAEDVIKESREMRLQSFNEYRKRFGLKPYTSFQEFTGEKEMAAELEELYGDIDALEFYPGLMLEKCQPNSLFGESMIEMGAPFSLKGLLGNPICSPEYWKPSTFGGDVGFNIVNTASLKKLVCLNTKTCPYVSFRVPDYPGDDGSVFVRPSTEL
# [1] = Ionisation constant in presence of base; type: ADME
# [2] = molecular target: T3, Cytochrome P450 11B1, mitochondrial (Rattus norvegicus, UniProt P15393); assay: Inhibition of rat adrenal 11-beta-hydroxylase
# T3 sequence (P15393 whole entry): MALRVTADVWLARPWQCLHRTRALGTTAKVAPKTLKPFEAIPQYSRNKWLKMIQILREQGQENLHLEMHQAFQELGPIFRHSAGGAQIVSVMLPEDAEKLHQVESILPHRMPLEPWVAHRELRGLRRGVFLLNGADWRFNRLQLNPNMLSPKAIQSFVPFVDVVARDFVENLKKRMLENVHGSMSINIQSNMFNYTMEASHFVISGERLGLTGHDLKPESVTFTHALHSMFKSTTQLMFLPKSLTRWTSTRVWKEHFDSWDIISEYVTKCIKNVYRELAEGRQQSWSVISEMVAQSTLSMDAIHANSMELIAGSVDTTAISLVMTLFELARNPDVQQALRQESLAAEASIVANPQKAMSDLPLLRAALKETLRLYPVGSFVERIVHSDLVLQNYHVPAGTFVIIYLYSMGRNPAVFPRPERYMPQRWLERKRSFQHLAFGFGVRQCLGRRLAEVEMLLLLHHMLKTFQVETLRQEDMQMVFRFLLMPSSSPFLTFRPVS
# [3] = Ionisation constant in presence of acid; type: ADME
compound,measurement,setting,value
Cc1c(Cn2ccnc2)[nH]c2ccc(C(=O)O)cc12,IC50,Thromboxane-A synthase,37 nM
O=C(O)c1ccc2cc(Cn3ccnc3)ccc2c1,IC50,Thromboxane-A synthase,34 nM
O=C(O)c1ccc2sc(Cn3ccnc3)c(Cl)c2c1,IC50,Thromboxane-A synthase,22 nM
same,IC50,Cyclooxygenase,> 0.0002 M
O=C(O)c1cccc2cc(Cn3ccnc3)ccc12,IC50,Thromboxane-A synthase,71 nM
Cc1c(Cn2ccnc2)sc2ccc(C(=O)O)cc12,IC50,Thromboxane-A synthase,17 nM
same,pKa,[1],6.58
same,IC50,Cyclooxygenase,> 0.0002 M
same,IC50,[2],> 100000 nM
same,pKa,[3],3.82
O=C(O)c1ccc2oc(Cn3ccnc3)c(Br)c2c1,IC50,Thromboxane-A synthase,30 nM
Cc1c(Cn2ccnc2)oc2ccc(C(=O)O)cc12,IC50,Thromboxane-A synthase,34 nM
same,pKa,[1],6.08
same,IC50,Cyclooxygenase,> 0.0002 M
same,IC50,[2],100000 nM
same,pKa,[3],3.91
CSc1c(Cn2ccnc2)sc2ccc(C(=O)O)cc12,IC50,Thromboxane-A synthase,43 nM
Cc1c(Cn2ccnc2)n(C)c2ccc(C(=O)O)cc12,IC50,Thromboxane-A synthase,32 nM
same,pKa,[1],6.32
same,IC50,Cyclooxygenase,> 0.0002 M
same,pKa,[3],4.08
O=C(O)c1ccc2oc(Cn3ccnc3)cc2c1,IC50,Thromboxane-A synthase,12 nM
O=C(O)c1ccc2sc(Cn3ccnc3)cc2c1,IC50,Thromboxane-A synthase,15 nM
same,pKa,[1],6.34
same,IC50,Cyclooxygenase,> 0.0002 M
same,IC50,[2],> 100000 nM
same,pKa,[3],3.9
Cc1c(Cn2ccnc2)sc2cc(C(=O)O)ccc12,IC50,Thromboxane-A synthase,18 nM
same,IC50,Cyclooxygenase,> 0.0002 M
O=C(O)c1ccc2c(Cl)c(Cn3ccnc3)sc2c1,IC50,Thromboxane-A synthase,40 nM
same,IC50,Cyclooxygenase,> 0.0002 M
O=C(O)c1ccc2sc(Cn3ccnc3)c(Br)c2c1,IC50,Thromboxane-A synthase,27 nM
same,IC50,[2],> 100000 nM
O=C(O)c1ccc2oc(Cn3ccnc3)c(Cl)c2c1,IC50,Thromboxane-A synthase,31 nM
same,IC50,Cyclooxygenase,> 0.0002 M
same,IC50,[2],> 100000 nM
O=C(O)c1ccc(OCCn2ccnc2)cc1 [DAZOXIBEN],IC50,[2],> 100000 nM
